According to publication PMC10445084, “Green synthesis, anti-proliferative evaluation, docking, and MD simulations studies of novel 2-piperazinyl quinoxaline derivatives using hercynite sulfaguanidine-SA as a highly efficient and reusable nanocatalyst” (RSC Advances, 2023):

What was measured:
HCT116 = experiment: MTT cytotoxicity assay, HCT116 colon cancer cells; type: cell-based, human; settings: 48 h incubation
Method: (§1) The tested cells were cultured in medium and dialyzed fetal bovine serum (FBS) and then as suspended germs in Minimum Essential Medium (MEM) were seeded into 96-well plates (at the density of 10 × 10^4 viable cells per well). After 24 h incubation in 5% CO2 at 37 °C and cell attachment. Then the evaluated compounds (at 0.1–250 μg ml^−1 concentrations) were added to the cultured cells and incubated for another 24/48 h.[18,19] After washing of the cell containing plates with […], 20 μl of fresh 4,5-(dimethylthiazol-2-yl)-2,5-diphenyl tetrazolium bromide (MTT) solution (5 mg ml^−1) was added to each well, and incubated with cells for additional 4 h in the same conditions. Then, the medium was discarded and approximately 70 μl of DMSO was used and the resulted solution was vigorously mixed to dissolve and remove the residual tetrazolium and purple formazan crystals in each well. Next, the absorbance of each well was measured at 492 nm and 630 nm (for absorbance of MTT formazan and the reference wavelength respectively) with an ELISA plate reader. Stock solutions of all the tested compounds were prepared in DMSO, while the final dilutions were made with distilled water in order to maintain a maximum concentration of 0.5% DMSO per well. All the evaluated compounds were also tested for cytotoxicity on HFF normal cells at the above-mentioned concentrations and in the same conditions and incubation periods of time. Curves were fit using Graph Pad Prism as described in the Methods section.[19]
(§2) All the evaluated N-Mannich bases (2a–2d, 3a–3h and 4a–4d) were investigated for anti-proliferative activity against two cancer cell lines, HCT116 (human colon cancer) and KOV3 (human ovarian carcinoma). HFF (human foreskin fibroblasts) normal cells were also tested to determine the selectivity of their cytotoxic effects in killing cancer over normal cells. […] After 24 and 48 h of incubation, cell viability was measured by the [3-(4,5-dimethylthiazol-2-yl)-2,5-diphenyltetrazolium bromide] (MTT) colorimetric assay.[34] At the end of each incubation period, the IC50 value and cell viability for each N-Mannich base were calculated in different concentrations (0.15–2.4 μM) and determined graphically as established in Fig. 3. […] A DMSO equivalent control (n = 2 ± SEM) was also included for each cell line tested. Standard graph was plotted by taking concentration of the drug in X axis and relative cell viability in Y axis (cell viability (%) = mean OD/control OD × 100%) in Graph Pad Prism 8.
(§3) 2.5. Biological evaluations: In vitro cytotoxicity
(§4) This rapid assay is based on the reduction of tetrazolium salt to dark blue formazan product by mitochondrial enzymes of living, not dead cells after 24 and 48h exposure of cells to tested compounds at different concentrations. DMSO (with the less concentration than 1%) was the solvent in this biological test. serial concentrations were made by diluting stock solution of each compound (50μM) with culture media (RPMI 1640). […]

SKOV3 = experiment: MTT cytotoxicity assay, SKOV3 ovarian cancer cells; type: cell-based, human; settings: 48 h incubation
Method: as §1, §2, §3, §4

[1] = tested on: HFF (human foreskin fibroblasts) normal cells; experiment: MTT cytotoxicity assay, HFF normal cells; type: cell-based; settings: Fibroblast, 48 h incubation
Method: as §1, §2, §3, §4

HCT116 and SKOV3 = experiment: MTT assay, statements pooled over both cancer cell lines; type: cell-based; settings: Homo sapiens, read-out: IC50 on the tested cancer cell lines
Method: as §1, with “Then, the medium was discarded and approximately 70 μl of DMSO was used and the resulted solution was vigorously mixed to dissolve and remove the residual tetrazolium and purple formazan crystals in each well.” left out, “Stock solutions of all the tested compounds were prepared in DMSO, while the final dilutions were made with distilled water in order to maintain a maximum concentration of 0.5% DMSO per well.” left out, “Curves were fit using Graph Pad Prism as described in the Methods section.[19]” left out
All the evaluated N-Mannich bases (2a–2d, 3a–3h and 4a–4d) were investigated for anti-proliferative activity against two cancer cell lines, HCT116 (human colon cancer) and KOV3 (human ovarian carcinoma). […] After 24 and 48 h of incubation, cell viability was measured by the [3-(4,5-dimethylthiazol-2-yl)-2,5-diphenyltetrazolium bromide] […]

Compound	IC50 (HCT116; Homo sapiens, HCT-116, 48 h) [µM]	IC50 (SKOV3; Homo sapiens, SK-OV-3, 48 h) [µM]	IC50 [1] [µM]	IC50 (HCT116 and SKOV3) [nM]	IC50 (HCT116) [µM]	IC50 (SKOV3) [µM]
O=C1C(=O)N(CN2CCN(c3cnc4ccccc4n3)CC2)c2ccccc21 [2a, 1-((4-(quinoxalin-2-yl)piperazin-1-yl)methyl) indoline-2,3-dione]	7.03	7.67	83.6	–	–	–
O=C1C(=O)N(CN2CCN(c3cnc4ccccc4n3)CC2)c2ccc(Br)cc21 [2b, 5-bromo-1-((4-(quinoxalin-2-yl)piperazin-1-yl)methyl) indoline-2,3-dione]	5.12	5.43	58.1	–	–	–
O=C1C(=O)N(CN2CCN(c3cnc4ccccc4n3)CC2)c2ccc(Cl)cc21 [2c, 5-chloro-1-((4-(quinoxalin-2-yl)piperazin-1-yl)methyl) indoline-2,3-dione]	6.06	6.49	82	–	–	–
Cc1ccc2c(c1)C(=O)C(=O)N2CN1CCN(c2cnc3ccccc3n2)CC1 [2d, 5-methyl-1-((4-(quinoxalin-2-yl)piperazin-1-yl)methyl) indoline-2,3-dione]	5	5.3	58.1	–	–	–
NC(=O)NN=C1C(=O)N(CN2CCN(c3cnc4ccccc4n3)CC2)c2ccccc21 [3a, 2-(2-oxo-1-((4-(quinoxalin-2-yl)piperazin-1-yl)methyl)indolin-3-ylidene) hydrazine-1-carboxamide]	1.99	2.21	13.5	–	–	–
NC(=S)N/N=C1/C(=O)N(CN2CCN(c3cnc4ccccc4n3)CC2)c2ccccc21 [3b, 2-(2-oxo-1-((4-(quinoxalin-2-yl)piperazin-1-yl)methyl)indolin-3-ylidene) hydrazine-1-carbothioamide]	3.03	3.38	24.6	–	–	–
NC(=O)N/N=C1/C(=O)N(CN2CCN(c3cnc4ccccc4n3)CC2)c2ccc(Br)cc21 [3c, 2-(5-bromo-2-oxo-1-((4-(quinoxalin-2-yl)piperazin-1-yl)methyl)indolin-3-ylidene) hydrazine-1-carboxamide]	3.35	3.52	35.9	–	–	–
NC(=S)N/N=C1/C(=O)N(CN2CCN(c3cnc4ccccc4n3)CC2)c2ccc(Br)cc21 [3d, 2-(5-bromo-2-oxo-1-((4-(quinoxalin-2-yl)piperazin-1-yl)methyl)indolin-3-ylidene) hydrazine-1-carbothioamide]	4.85	5.03	49.6	–	–	–
NC(=O)N/N=C1/C(=O)N(CN2CCN(c3cnc4ccccc4n3)CC2)c2ccc(Cl)cc21 [3e, 2-(5-chloro-2-oxo-1-((4-(quinoxalin-2-yl)piperazin-1-yl)methyl)indolin-3-ylidene) hydrazine-1-carboxamide]	4.3	4.96	37.6	–	–	–
NC(=S)N/N=C1/C(=O)N(CN2CCN(c3cnc4ccccc4n3)CC2)c2ccc(Cl)cc21 [3f, 2-(5-chloro-2-oxo-1-((4-(quinoxalin-2-yl)piperazin-1-yl)methyl)indolin-3-ylidene) hydrazine-1-carbothioamide]	4.92	5.15	57.1	–	–	–
Cc1ccc2c(c1)C(=NNC(N)=O)C(=O)N2CN1CCN(c2cnc3ccccc3n2)CC1 [3g, 2-(5-methyl-2-oxo-1-((4-(quinoxalin-2-yl)piperazin-1-yl)methyl)indolin-3-ylidene)hydrazine-1-carboxamide]	2.92	3.25	22.8	–	–	–
Cc1ccc2c(c1)/C(=N\NC(N)=S)C(=O)N2CN1CCN(c2cnc3ccccc3n2)CC1 [3h, 2-(5-methyl-2-oxo-1-((4-(quinoxalin-2-yl)piperazin-1-yl)methyl)indolin-3-ylidene) hydrazine-1-carbothioamide]	3.23	3.46	26.6	–	–	–
CN(C)C(=N)NC(=N)N=C1C(=O)N(CN2CCN(c3cnc4ccccc4n3)CC2)c2ccccc21 [4a, N’-[4-(quinoxaline-2-yl)-piperazine-1-yl]methyl-1-H-indole,2,3-dion-3-metformin]	1.23	1.51	9.11	–	–	–
CN(C)C(=N)NC(=N)/N=C1/C(=O)N(CN2CCN(c3cnc4ccccc4n3)CC2)c2ccc(Br)cc21 [4b, N′-[4-(quinoxaline-2-yl)-piperazine-1-yl]methyl-5-bromo-1-H-indole,2,3-dion-3-metformin]	0.45	0.48	6.95	< 1000	0.458	0.488
CN(C)C(=N)NC(=N)/N=C1/C(=O)N(CN2CCN(c3cnc4ccccc4n3)CC2)c2ccc(Cl)cc21 [4c, N′-[4-(quinoxaline-2-yl)-piperazine-1-yl]methyl-5-chloro-1-H-indole,2,3-dion-3-metformin]	0.39	0.44	6.81	< 1000	0.392	0.44
Cc1ccc2c(c1)/C(=N\C(=N)NC(=N)N(C)C)C(=O)N2CN1CCN(c2cnc3ccccc3n2)CC1 [4d]	1.54	1.72	10	–	–	–
